Measurements from patent publication US20230099441A1, “HETEROCYCLIC COMPOUND, APPLICATION THEREOF, AND COMPOSITION CONTAINING SAME” (GenEros Biopharma Ltd., priority 2019, published 2023).

Assay: Body weight of animals in the mouse collagen-induced arthritis model
Format: in vivo
Conditions: oral, X8 1 mg/kg once a day; for body weight of animals, Mean/g: mean of group, Methotrexate 0.25 mg/kg once a week, Tofacitinib 5 mg/kg once a day
Excerpt: Sixty male DBA/1J mice (9-10 weeks old, H-2q haplotype) were acclimatized in a standard animal room for one week and then randomly divided into 5 groups. Except for the healthy control group, the rest were inoculated with collagen antigen injection, and then received oral treatment with different compounds. The brief procedure was to mix bovine type II collagen (purchased from Chondrex, 20021) with an equal volume of Freund's complete adjuvant (purchased from Sigma, F5881), the concentration was 4 mg/ml, and it was treated with a homogenizer at a speed of 20,000 revolutions/min for 5-10 minutes. A needle was inserted between the left side of the dorsal caudal artery and the lateral vein of the mouse, and 50 microliters of modeling agent was injected subcutaneously. 21 days after the first injection, another injection was injected between the right side of the dorsal tail artery and the lateral vein of the mouse. After the first injection, oral administration was started. The drug was formulated with […] PEG300, and it was prepared for immediate use. […] The total score was between 0-12 points, and the swelling of the foot after vaccination was not calculated.

## O=C(Cc1ccc(C(F)(F)F)cc1)N1CCC(n2c(=O)[nH]c3ccccc32)CC1 [Example X8, 1-(1-(2-(4-(trifluoromethyl)phenyl)acetyl)piperidin-4-yl)-1H-benzo[d]imidazole-2(3H)-one]
Day 0
  body weight of animals, Mean/g: 21.50 g
Day 4
  body weight of animals, Mean/g: 21.52 g
Day 7
  body weight of animals, Mean/g: 21.93 g
Day 11
  body weight of animals, Mean/g: 21.90 g
Day 14
  body weight of animals, Mean/g: 21.92 g
Day 18
  body weight of animals, Mean/g: 22.23 g
Day 20
  body weight of animals, Mean/g: 22.50 g
Day 25
  body weight of animals, Mean/g: 22.07 g
Day 28
  body weight of animals, Mean/g: 21.82 g
Day 31
  body weight of animals, Mean/g: 21.71 g
Day 33
  body weight of animals, Mean/g: 21.82 g
Day 35
  body weight of animals, Mean/g: 21.55 g
Day 38
  body weight of animals, Mean/g: 21.71 g
Day 40
  body weight of animals, Mean/g: 21.64 g
Day 42
  body weight of animals, Mean/g: 21.61 g
Day 45
  body weight of animals, Mean/g: 21.98 g
Whole experiment, days 0-45, methotrexate 0.25 mg/kg once a week, tofacitinib 5 mg/kg once a day
  effect on body weight of animals (in words): no significant effect on body weight of animals, and no drastic changes were seen
